# Data from ChEMBL document CHEMBL1152127, “Kinetic isotope effects in the oxidation of arachidonic acid by soybean lipoxygenase-1” (Bioorg Med Chem Lett, 2008).
# What was measured:
# Glycine max [1] = assay: Activity of soybean lipoxygenase 1
# Glycine max [2] = assay: Activity of soybean lipoxygenase 1 assessed as rate of oxidation under diffusion-controlled reaction at 20 deg C
# Glycine max [3] = assay: Activity of soybean lipoxygenase 1 assessed as rate of oxidation under diffusion-controlled reaction at 5 deg C
# Glycine max [4] = assay: Activity of soybean lipoxygenase 1 assessed as rate of oxidation under diffusion-controlled reaction at 37 deg C
SMILES,Km (Glycine max [1]),Activity (Glycine max [2]),Activity (Glycine max [3]),Activity (Glycine max [4])
CCCCC/C=C\C/C=C\CCCCCCCC(=O)O,39 µM,–,–,–
CCCCC/C=C\C/C=C\C/C=C\C/C=C\CCCC(=O)O,15 µM,56%,18%,28%
